This note sets out measurements from patent publication US20020022059A1, “Water treatment process” (priority 1996, published 2002).

The subject of one series is algae bloom. Nature of the series: Application of algicide-flocculant treatment against an algae bloom in a South Texas water plant. The following applies: clarifier.
For series [1] the following is noted: pH 7, or more alkaline water.
Excerpt: Since the incoming raw water most often has a pH of 7 or above, this causes the crystals to acquire a coating of copper hydroxide that inhibits dissolution of the blue vitriol crystals into the water.

Regarding `O.O.O.O.O.O=S(=O)([O-])[O-].[Cu+2]` [blue vitriol crystals, cupric sulfate pentahydrate], in the series on algae bloom, the “outcome of algae bloom” value is given as “had battled an algae bloom”. Also, the dissolution in water entry in series [1] is “do not dissolve very well”.
